Data reported in patent US9617267B2, “Compounds and methods for kinase modulation, and indications therefor” (Plexxikon Inc., priority 2009, dated 2017).
Where two headings read alike, the source gives them in different places.

What was measured:
[1] = biological target: B-Raf (Homo sapiens (Human), UniProt P15056); test: B-Raf kinase activity biochemical assay (AlphaScreen, biotin-MEK1 phosphorylation); settings: B-Raf
Method in brief: (§1)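 Compounds from a 0.1 mM DMSO stock were tested at 8 serially diluted points. Kinase reactions with 100 μM ATP (final) ran 45 min at room temperature, then were stopped with EDTA buffer containing anti-phospho-MEK1/2 antibody plus streptavidin donor and protein A acceptor beads.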

[2] = test system: B-Raf; test: as above; settings: for Biochemical activity ratio B/V600E: ratio of IC50 B-Raf / B-Raf V600E; for Biochemical activity ratio B/C: ratio of IC50 B-Raf / c-Raf-1
Method in brief: as §1

[3] = biological target: B-Raf V600E (Homo sapiens (Human), UniProt P15056, V600E); test: B-Raf V600E kinase activity biochemical assay (AlphaScreen, biotin-MEK1 phosphorylation); settings: for IC50: B-Raf V600E; for Biochemical activity ratio V600E/C: ratio of IC50 B-Raf V600E / c-Raf-1
Sequence of B-Raf V600E (P15056 whole entry V600E): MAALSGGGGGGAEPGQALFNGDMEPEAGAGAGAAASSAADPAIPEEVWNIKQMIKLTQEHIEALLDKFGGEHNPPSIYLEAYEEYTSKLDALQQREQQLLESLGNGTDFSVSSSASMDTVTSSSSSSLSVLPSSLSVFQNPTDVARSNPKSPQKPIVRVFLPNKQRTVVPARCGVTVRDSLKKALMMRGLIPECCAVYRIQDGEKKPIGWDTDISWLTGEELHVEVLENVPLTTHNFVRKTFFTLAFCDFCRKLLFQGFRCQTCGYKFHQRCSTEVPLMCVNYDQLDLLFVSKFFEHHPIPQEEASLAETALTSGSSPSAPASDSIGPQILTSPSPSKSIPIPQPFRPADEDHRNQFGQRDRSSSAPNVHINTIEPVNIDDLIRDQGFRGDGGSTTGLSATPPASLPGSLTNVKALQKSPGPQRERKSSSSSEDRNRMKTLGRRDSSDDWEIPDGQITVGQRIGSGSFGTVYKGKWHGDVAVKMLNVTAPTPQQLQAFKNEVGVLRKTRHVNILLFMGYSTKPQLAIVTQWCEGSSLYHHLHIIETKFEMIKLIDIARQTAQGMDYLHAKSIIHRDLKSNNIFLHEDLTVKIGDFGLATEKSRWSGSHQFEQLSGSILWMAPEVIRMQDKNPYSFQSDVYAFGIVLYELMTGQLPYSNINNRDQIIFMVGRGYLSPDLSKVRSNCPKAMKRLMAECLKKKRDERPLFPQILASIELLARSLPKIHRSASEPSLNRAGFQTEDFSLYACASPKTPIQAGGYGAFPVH
Method in brief: as §1

[4] = biological target: c-Raf-1 (Homo sapiens, UniProt P04049); test: c-Raf-1 kinase activity biochemical assay (AlphaScreen, biotin-MEK1 phosphorylation)
Sequence of c-Raf-1 (P04049 whole entry, looked up): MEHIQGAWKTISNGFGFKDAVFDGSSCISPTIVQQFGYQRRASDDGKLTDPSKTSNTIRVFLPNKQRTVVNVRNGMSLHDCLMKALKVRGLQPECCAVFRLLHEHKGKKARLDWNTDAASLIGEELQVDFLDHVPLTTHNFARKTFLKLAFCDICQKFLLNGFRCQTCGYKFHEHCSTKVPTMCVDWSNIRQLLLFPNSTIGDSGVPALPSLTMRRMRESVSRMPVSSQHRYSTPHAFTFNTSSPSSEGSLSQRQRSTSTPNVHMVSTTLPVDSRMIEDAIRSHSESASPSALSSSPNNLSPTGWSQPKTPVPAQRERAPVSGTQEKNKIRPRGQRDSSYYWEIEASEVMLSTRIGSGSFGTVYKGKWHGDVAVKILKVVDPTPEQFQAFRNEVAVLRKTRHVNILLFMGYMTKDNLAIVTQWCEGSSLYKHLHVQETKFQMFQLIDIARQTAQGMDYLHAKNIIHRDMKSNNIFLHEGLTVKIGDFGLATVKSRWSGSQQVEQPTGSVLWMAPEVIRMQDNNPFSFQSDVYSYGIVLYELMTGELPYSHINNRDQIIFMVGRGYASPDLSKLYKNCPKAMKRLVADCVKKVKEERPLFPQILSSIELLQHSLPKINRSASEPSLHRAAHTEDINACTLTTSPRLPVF
Method in brief: as §1

[5] = Relative solubility by turbidity threshold concentration in aqueous buffers (pH 1.5, 4.5, 6.8, 7.4); format: physicochemical; settings: for turbidity threshold (L, M, H) 1.4: pH 1.4 [sic] (method: SGF pH 1.5); for turbidity threshold (L, M, H) 4.5: pH 4.5 (SIF); for turbidity threshold (L, M, H) 6.8: pH 6.8 (SIF); for turbidity threshold (L, M, H) 7.4: pH 7.4 (HEPES)
Method in brief: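 Solubility class (high >250 μM, moderate 31.3–250 μM, low <31.3 μM) comes from the concentration where absorbance reaches a 0.01 threshold, averaged across 490/535/650 nm. Samples were compound dilutions from DMSO stock, 1 μL into 99 μL buffer at pH 1.5, 4.5, 6.8 or 7.4.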

[6] = biological target: CYP1A2 (Homo sapiens (Human), UniProt P05177); test: CYP enzyme inhibition, fluorescent substrate (CEC)
Sequence of CYP1A2 (P05177 whole entry): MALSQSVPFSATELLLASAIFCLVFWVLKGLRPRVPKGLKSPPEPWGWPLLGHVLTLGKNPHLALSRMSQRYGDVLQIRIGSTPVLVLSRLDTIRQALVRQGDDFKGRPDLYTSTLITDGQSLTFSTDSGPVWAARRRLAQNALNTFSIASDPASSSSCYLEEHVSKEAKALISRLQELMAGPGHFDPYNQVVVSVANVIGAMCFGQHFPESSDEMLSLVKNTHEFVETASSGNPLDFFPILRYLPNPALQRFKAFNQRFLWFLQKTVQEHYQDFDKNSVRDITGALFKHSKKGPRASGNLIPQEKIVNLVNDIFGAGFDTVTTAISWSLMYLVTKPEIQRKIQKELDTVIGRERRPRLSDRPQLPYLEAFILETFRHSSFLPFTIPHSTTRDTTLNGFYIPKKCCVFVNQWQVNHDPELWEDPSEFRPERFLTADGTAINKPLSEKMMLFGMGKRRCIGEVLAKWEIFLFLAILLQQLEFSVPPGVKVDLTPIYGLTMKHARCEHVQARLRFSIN
Method in brief: (§2)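 IC50 derived from loss of fluorescent metabolite across a 10-point 1:1 dilution series. CYP2D6: 1.5 pmol enzyme, 1.5 μM AMMC, 30 min at 37 °C, 409/530 nm; CYP1A2: 0.5 pmol, 5 μM CEC, 15 min, 409/460 nm. Compounds pre-incubated 10 min in NADPH-regenerating mix.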

[7] = biological target: CYP2C19 (Homo sapiens (Human), UniProt P33261); test: CYP enzyme inhibition, fluorescent substrate (CEC)
Sequence of CYP2C19 (P33261 whole entry): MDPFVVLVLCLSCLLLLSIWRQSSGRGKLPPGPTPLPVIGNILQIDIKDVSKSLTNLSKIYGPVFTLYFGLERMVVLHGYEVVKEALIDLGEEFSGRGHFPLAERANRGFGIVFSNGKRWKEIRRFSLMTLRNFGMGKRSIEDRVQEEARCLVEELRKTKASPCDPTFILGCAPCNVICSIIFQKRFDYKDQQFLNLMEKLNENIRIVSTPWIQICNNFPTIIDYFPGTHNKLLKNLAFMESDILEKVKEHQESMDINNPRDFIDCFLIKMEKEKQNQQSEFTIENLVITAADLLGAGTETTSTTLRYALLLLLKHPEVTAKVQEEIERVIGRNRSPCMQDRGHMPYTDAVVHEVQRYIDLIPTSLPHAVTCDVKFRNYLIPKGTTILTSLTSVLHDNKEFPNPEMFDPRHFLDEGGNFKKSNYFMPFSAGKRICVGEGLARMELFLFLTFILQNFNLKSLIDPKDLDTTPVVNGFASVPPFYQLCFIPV
Method in brief: (§3)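 10-pt 1:1 serial dilution in co-factor mix (DMSO stock 100 mM); 10 min preincubation, 37 °C; reaction at 37 °C. Readout: fluorescent metabolite of probe substrate. IC50 from signal vs [compound].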

[8] = biological target: CYP2C9 (Homo sapiens (Human), UniProt P11712); test: CYP enzyme inhibition, fluorescent substrate (MFC)
Sequence of CYP2C9 (P11712 whole entry): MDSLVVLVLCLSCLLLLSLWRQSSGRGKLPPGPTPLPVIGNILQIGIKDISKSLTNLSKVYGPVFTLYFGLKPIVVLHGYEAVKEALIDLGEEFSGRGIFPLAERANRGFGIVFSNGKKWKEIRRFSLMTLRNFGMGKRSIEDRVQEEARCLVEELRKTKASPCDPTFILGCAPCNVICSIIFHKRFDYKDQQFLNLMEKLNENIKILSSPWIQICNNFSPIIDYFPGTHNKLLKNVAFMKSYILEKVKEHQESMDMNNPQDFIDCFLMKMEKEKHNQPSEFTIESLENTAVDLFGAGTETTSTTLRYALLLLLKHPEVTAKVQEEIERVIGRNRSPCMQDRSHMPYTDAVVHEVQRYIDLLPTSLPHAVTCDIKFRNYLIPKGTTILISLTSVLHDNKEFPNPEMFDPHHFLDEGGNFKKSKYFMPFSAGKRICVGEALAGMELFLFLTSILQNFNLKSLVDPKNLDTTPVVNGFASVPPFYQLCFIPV
Method in brief: as §3

[9] = biological target: CYP2D6 (Homo sapiens (Human), UniProt P10635); test: CYP enzyme inhibition, fluorescent substrate (AMMC); format: in vitro ADME; settings: read-out: Cyp IC50 2D6
Sequence of CYP2D6 (P10635 whole entry): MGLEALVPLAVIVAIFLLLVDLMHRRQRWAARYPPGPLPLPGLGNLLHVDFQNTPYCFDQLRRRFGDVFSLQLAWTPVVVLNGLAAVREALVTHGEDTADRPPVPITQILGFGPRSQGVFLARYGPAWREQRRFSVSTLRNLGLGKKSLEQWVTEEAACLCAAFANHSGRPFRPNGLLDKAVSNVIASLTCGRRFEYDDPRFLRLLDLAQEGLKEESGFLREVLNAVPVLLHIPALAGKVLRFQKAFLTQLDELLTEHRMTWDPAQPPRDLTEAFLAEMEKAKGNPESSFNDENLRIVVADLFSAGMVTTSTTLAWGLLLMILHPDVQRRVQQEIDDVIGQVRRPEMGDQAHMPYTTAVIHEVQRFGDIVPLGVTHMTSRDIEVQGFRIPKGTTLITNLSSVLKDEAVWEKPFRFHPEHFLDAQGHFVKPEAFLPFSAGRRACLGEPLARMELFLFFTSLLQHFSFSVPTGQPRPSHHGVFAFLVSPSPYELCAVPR
Method in brief: as §2

[10] = biological target: CYP3A4(BFC) (Homo sapiens (Human), UniProt P08684); test: CYP enzyme inhibition, fluorescent substrate BFC
Sequence of CYP3A4(BFC) (P08684 whole entry): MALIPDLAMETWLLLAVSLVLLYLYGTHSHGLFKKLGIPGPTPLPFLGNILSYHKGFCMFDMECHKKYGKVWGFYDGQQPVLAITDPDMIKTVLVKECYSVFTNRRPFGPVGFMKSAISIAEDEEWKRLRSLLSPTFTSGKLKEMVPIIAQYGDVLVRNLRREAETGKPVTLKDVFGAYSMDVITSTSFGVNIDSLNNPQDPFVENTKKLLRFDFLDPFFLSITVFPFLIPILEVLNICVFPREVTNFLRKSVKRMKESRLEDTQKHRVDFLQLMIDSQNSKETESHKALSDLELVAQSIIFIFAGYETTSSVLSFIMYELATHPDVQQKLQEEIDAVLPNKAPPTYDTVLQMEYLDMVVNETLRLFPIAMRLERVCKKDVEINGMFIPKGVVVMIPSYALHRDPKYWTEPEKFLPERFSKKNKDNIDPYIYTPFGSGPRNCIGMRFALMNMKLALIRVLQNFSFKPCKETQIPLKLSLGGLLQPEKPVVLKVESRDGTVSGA
Method in brief: as §3

[11] = biological target: CYP3A4(BQ) (Homo sapiens (Human), UniProt P08684); test: CYP enzyme inhibition, fluorescent substrate BQ
Sequence of CYP3A4(BQ) (P08684 whole entry): as above
Method in brief: as §3

[12] = read-out: Cyp IC50 2C19, CYP2C19, substrate CEC
[13] = read-out: Cyp IC50 2C9, CYP2C9, substrate MFC
[14] = read-out: Cyp IC50 3A4(BFC), CYP3A4, substrate BFC
[15] = read-out: Cyp IC50 3A4(BQ), CYP3A4, substrate BQ

Sequence of B-Raf (Homo sapiens (Human), UniProt P15056) (P15056 whole entry): as the sequence (P15056 whole entry V600E) above, with E600V counted along it

Row | IC50 [1] [µM] | Biochemical activity ratio B/V600E [2] | Biochemical activity ratio B/C [2] | IC50 [3] [µM] | Biochemical activity ratio V600E/C [3] | IC50 [4] [µM] | IC50 [6] [µM] | IC50 [7] [µM] | IC50 [8] [µM] | IC50 [9] [µM] | IC50 [10] [µM] | IC50 [11] [µM] | Compound | turbidity threshold (L, M, H) 1.4 [5] | turbidity threshold (L, M, H) 4.5 [5] | turbidity threshold (L, M, H) 6.8 [5] | turbidity threshold (L, M, H) 7.4 [5] | IC50 ([6]; human, 15 min) [µM] | IC50 [8, 13] [µM] | IC50 [11, 15] [µM] | also measured
1 | < 0.1 | 0.1-10 | >10 | < 0.1 | 0.1-10 | < 0.1 | > 10 | > 10 | < 5 | > 10 | > 10 | > 10 | CCCS(=O)(=O)Nc1ccc(F)c(C(=O)c2c[nH]c3ncc(C#N)c(Cl)c23)c1F [P-2004, Propane-1-sulfonic acid [3-(4-chloro-5-cyano-1H-pyrrolo[2,3-b]pyridine-3-carbonyl)-2,4-difluoro-phenyl]-amide] | L (low solubility if the threshold concentration is <31.3 μM) | L (low solubility if the threshold concentration is <31.3 μM) | L (low solubility if the threshold concentration is <31.3 μM) | L (low solubility if the threshold concentration is <31.3 μM) | – | – | – | –
2 | < 0.1 | 0.1-10 | >10 | > 0.1 | >10 | < 0.1 | > 10 | > 10 | > 10 | > 10 | > 10 | > 10 | N#Cc1c(F)cnc2[nH]cc(C(=O)c3c(F)ccc(NS(=O)(=O)c4ccc(C(F)(F)F)cc4)c3F)c12 [P-2009, N-[3-(4-Cyano-5-fluoro-1H-pyrrolo[2,3-b]pyridine-3-carbonyl)-2,4-difluoro-phenyl]-4-trifluoromethyl-benzenesulfonamide] | L (low solubility if the threshold concentration is <31.3 μM) | M (moderate solubility if the threshold concentration is 31.3 μM to 250 μM) | M (moderate solubility if the threshold concentration is 31.3 μM to 250 μM) | M (moderate solubility if the threshold concentration is 31.3 μM to 250 μM) | – | – | – | –
3 | < 0.1 | 0.1-10 | >10 | < 0.1 | >10 | < 0.1 | > 10 | > 10 | 5 to 10 | < 5 | > 10 | > 10 | N#Cc1c(Cl)cnc2[nH]cc(C(=O)c3c(F)ccc(NS(=O)(=O)c4ccc(C(F)(F)F)cc4)c3F)c12 [P-2010, N-[3-(5-Chloro-4-cyano-1H-pyrrolo[2,3-b]pyridine-3-carbonyl)-2,4-difluoro-phenyl]-4-trifluoromethyl-benzenesulfonamide] | L (low solubility if the threshold concentration is <31.3 μM) | L (low solubility if the threshold concentration is <31.3 μM) | L (low solubility if the threshold concentration is <31.3 μM) | M (moderate solubility if the threshold concentration is 31.3 μM to 250 μM) | – | – | – | –
4 | < 0.1 | 0.1-10 | 0.1-10 | < 0.1 | 0.1-10 | < 0.1 | > 10 | < 5 | < 5 | > 10 | 5 to 10 | 5 to 10 | CCCS(=O)(=O)Nc1ccc(F)c(C(=O)c2c[nH]c3ncc(OC)c(Cl)c23)c1F [P-2002, Propane-1-sulfonic acid [3-(4-chloro-5-methoxy-1H-pyrrolo[2,3-b]pyridine-3-carbonyl)-2,4-difluoro-phenyl]-amide] | M (moderate solubility if the threshold concentration is 31.3 μM to 250 μM) | M (moderate solubility if the threshold concentration is 31.3 μM to 250 μM) | M (moderate solubility if the threshold concentration is 31.3 μM to 250 μM) | M (moderate solubility if the threshold concentration is 31.3 μM to 250 μM) | – | – | – | –
5 | > 0.1 | 0.1-10 | >10 | < 0.1 | 0.1-10 | < 0.1 | > 10 | > 10 | > 10 | > 10 | > 10 | > 10 | CCCS(=O)(=O)Nc1ccc(F)c(C(=O)c2c[nH]c3ncnc(OCC)c23)c1F [P-1002, Propane-1-sulfonic acid [3-(4-ethoxy-7H-pyrrolo[2,3-d]pyrimidine-5-carbonyl)-2,4-difluoro-phenyl]-amide] | H (high solubility if the threshold concentration is >250 μm) | H (high solubility if the threshold concentration is >250 μm) | H (high solubility if the threshold concentration is >250 μm) | H (high solubility if the threshold concentration is >250 μm) | – | – | – | –

Row | Compound | IC50 [1] [µM] | Biochemical activity ratio B/V600E [2] | Biochemical activity ratio B/C [2] | IC50 [3] [µM] | Biochemical activity ratio V600E/C [3] | IC50 [4] [µM] | IC50 [6] [µM] | IC50 [7] [µM] | IC50 [8] [µM] | IC50 [9] [µM] | IC50 [10] [µM] | IC50 [11] [µM] | turbidity threshold (L, M, H) 1.4 [5] | turbidity threshold (L, M, H) 4.5 [5] | turbidity threshold (L, M, H) 6.8 [5] | turbidity threshold (L, M, H) 7.4 [5] | IC50 ([6]; human, 15 min) [µM] | IC50 [8, 13] [µM] | IC50 [11, 15] [µM] | also measured
6 | CN(C)c1ncnc2[nH]cc(C(=O)c3c(F)ccc(NS(=O)(=O)c4ccc(C(F)(F)F)cc4)c3F)c12 [P-1049, N-[3-(4-Dimethylamino-7H-pyrrolo[2,3-d]pyrimidine-5-carbonyl)-2,4-difluoro-phenyl]-4-trifluoromethyl-benzenesulfonamide] | > 0.1 | 0.1-10 | >10 | > 0.1 | >10 | > 0.1 | – | – | – | > 10 | – | – | M (moderate solubility if the threshold concentration is 31.3 μM to 250 μM) | M (moderate solubility if the threshold concentration is 31.3 μM to 250 μM) | M (moderate solubility if the threshold concentration is 31.3 μM to 250 μM) | M (moderate solubility if the threshold concentration is 31.3 μM to 250 μM) | > 10 | > 10 | > 10 | IC50 [7, 12]: > 10 µM; IC50 [10, 14]: > 10 µM
7 | Cc1ncnc2[nH]cc(C(=O)c3c(F)ccc(NS(=O)(=O)c4ccc(C(C)C)cc4)c3F)c12 [P-1009, N-[2,4-Difluoro-3-(4-methyl-7H-pyrrolo[2,3-d]pyrimidine-5-carbonyl)-phenyl]-4-isopropyl-benzenesulfonamide] | > 0.1 | 0.1-10 | >10 | > 0.1 | >10 | < 0.1 | – | 5 to 10 | – | > 10 | – | – | H (high solubility if the threshold concentration is >250 μm) | L (low solubility if the threshold concentration is <31.3 μM) | L (low solubility if the threshold concentration is <31.3 μM) | M (moderate solubility if the threshold concentration is 31.3 μM to 250 μM) | > 10 | < 5 | > 10 | IC50 [10, 14]: < 5 µM
8 | CCCc1ccc(S(=O)(=O)Nc2ccc(F)c(C(=O)c3c[nH]c4ncnc(NC5CC5)c34)c2F)cc1 [P-1040, N-[3-(4-cyclopropylamino-7H-pyrrolo[2,3-d]pyrimidine-5-carbonyl)-2,4-difluoro-phenyl]-4-propyl-benzenesulfonamide] | < 0.1 | 0.1-10 | 0.1-10 | > 0.1 | >10 | < 0.1 | – | – | – | > 10 | 5 to 10 | – | M (moderate solubility if the threshold concentration is 31.3 μM to 250 μM) | L (low solubility if the threshold concentration is <31.3 μM) | L (low solubility if the threshold concentration is <31.3 μM) | L (low solubility if the threshold concentration is <31.3 μM) | > 10 | > 10 | > 10 | IC50 [7, 12]: > 10 µM
